Measured values from article PMC11110763, “Carltonine-derived compounds for targeted butyrylcholinesterase inhibition” (RSC Medicinal Chemistry, 2024).
≈ marks a conversion by molar mass, not a printed value.

What was measured:
[1] = biological target: T1, recombinant BChE (hBChE, E.C. 3.1.1.8) (Homo sapiens, UniProt P06276); assay: biochemical; type: biochemical
T1 construct: purchased Sigma-Aldrich, Prague, Czech Republic
Procedure: The activities of hAChE and hBChE were determined using a modified Ellman's method, as described in ref. [56] and [62] against recombinant AChE (hAChE, E.C. 3.1.1.7) and recombinant BChE (hBChE, E.C. 3.1.1.8), both of which were purchased from Sigma-Aldrich, Prague, Czech Republic. […] The other compounds used, including the phosphate buffer solution (PBS, pH = 7.4), 5,5′-dithio-bis(2-nitrobenzoic) acid (Ellman's reagent, DTNB), acetylthiocholine (ATChI), and butyrylthiocholine (BTChI), were commercially available and purchased from Sigma-Aldrich in Prague, Czech Republic. In brief, the corresponding enzyme (8.3 μL), 5 mM DTNB (283 μL), and the sample dilution in dimethyl sulfoxide (DMSO) at various concentrations (8.3 μL) were added to 96-well microplates (BRAND GMBH + CO KG, Wertheim, Germany) and pre-incubated for 5 minutes in the assay medium. The reaction was initiated by adding 10 mM substrate (ATChI or BTChI, 33.3 μL). […] Each measurement was repeated in triplicate. The percentage of inhibition was calculated using the following formula: [drawing 8] where ΔABl represents the increase in absorbance of the blank sample, and ΔASa represents the increase in absorbance of the measured sample. […] Microsoft Excel (Redmond, WA, USA) and GraphPad Prism version 7 for Windows (GraphPad Software, San Diego, CA, USA) were used for the statistical data evaluation.

hBChE = hBChE (Homo sapiens, UniProt P06276); assay: Enzyme kinetic analysis of hBChE inhibition; type: biochemical
Chain of hBChE (P06276 29-602): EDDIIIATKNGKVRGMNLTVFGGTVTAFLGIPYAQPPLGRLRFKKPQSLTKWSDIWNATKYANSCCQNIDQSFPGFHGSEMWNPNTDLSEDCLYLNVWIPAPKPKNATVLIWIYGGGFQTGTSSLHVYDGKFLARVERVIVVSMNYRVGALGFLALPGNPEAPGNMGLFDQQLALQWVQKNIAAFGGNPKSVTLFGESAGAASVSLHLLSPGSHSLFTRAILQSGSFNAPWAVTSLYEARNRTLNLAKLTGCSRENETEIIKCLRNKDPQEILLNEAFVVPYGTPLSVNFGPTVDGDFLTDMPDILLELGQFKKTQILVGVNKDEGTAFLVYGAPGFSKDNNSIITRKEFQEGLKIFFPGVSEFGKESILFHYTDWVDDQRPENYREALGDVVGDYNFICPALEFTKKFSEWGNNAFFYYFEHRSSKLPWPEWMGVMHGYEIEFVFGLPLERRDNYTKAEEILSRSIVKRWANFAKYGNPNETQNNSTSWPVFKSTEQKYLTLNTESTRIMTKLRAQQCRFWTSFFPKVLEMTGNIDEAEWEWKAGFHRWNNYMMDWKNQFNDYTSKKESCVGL
Procedure: A kinetic study was performed to estimate the interaction mode of derivative 33 with hBChE. The inhibition kinetics was calculated from rate curves that were determined at several concentrations of the tested compound and substrate. The type of enzyme inhibition and appropriate kinetic parameters (Ki and Ki′) were determined using nonlinear regression analysis. Results for each type of inhibition model (competitive, non-competitive, uncompetitive and mixed) were compared by the sum-of-squares F-test. […].
The kinetic study of hBChE was conducted using the modified Ellman's method mentioned earlier,[62,74,75] with slight variations applied at the collaborating laboratory. Solutions of the corresponding ChE in phosphate buffer (PB) were prepared to achieve a final activity of 0.002 U μL^−1. The solutions of the tested compounds (8.3 μL at varying concentrations) were pre-incubated for 5 minutes in the assay medium. […] The increase in absorbance was measured for 1 minute at 412 nm using the Multimode microplate reader Synergy 2 (BioTek Inc., Winooski, VT, USA). Nunc flat-bottomed polystyrene 96-well microplates (ThermoFisher Scientific, USA) were used for these measurements. To calculate the resulting measured activity (expressed as the percentage of inhibition I), the following formula was applied: [drawing 9] where ΔAi indicates the absorbance change provided by adequate enzyme exposed to the corresponding inhibitor and ΔA0 indicates the absorbance change when a solution of PB was added instead of a solution of the inhibitor. Microsoft Excel (Redmond, WA, USA) and GraphPad Prism version 8.30 for Windows (GraphPad Software, San Diego, CA, USA) were employed for the statistical data analysis. The values of Vmax and Km for the Michaelis–Menten kinetics, as well as the values of Ki (enzyme–inhibitor dissociation constant) and Ki′ (enzyme–substrate–inhibitor dissociation constant), were calculated through nonlinear regression from the substrate velocity curves. Linear regression was used for the calculation of Lineweaver–Burk plots. […]

[2] = Aqueous solubility determination; type: physicochemical; conditions: ultrapure distilled water containing 5% DMSO, 37 °C
Procedure: Briefly, 200 μl of the aqueous solution of compound 33 at the concentration of 50 μM was analyzed for the UV/vis absorption spectrum using a multimode microplate reader (TECAN Spark®, Tecan Group Ltd., Switzerland) and the wavelength of maximum absorbance was used for further testing of the corresponding compound. Subsequently, six consecutive concentrations were prepared for the compound by serial dilution of 50 μM standard solution and the absorbance of these solutions (200 μl) was measured by a microplate reader. The data were used to calculate the calibration curve by the linear regression method. Finally, the over-saturated solutions of the tested compound were prepared and incubated in an ultrasound water bath at 37 °C for 10 min. Then the solutions were centrifuged at 8000 RPM for 10 min and the UV/vis absorption of the supernatant was measured by a microplate reader. The obtained absorption value was used to calculate the maximum water solubility of the tested compound. In case the absorption value of the supernatant was higher than the calibration curve range, the supernatant was diluted with a 5% DMSO/water solution to match the calibration curve.

[3] = Human liver microsomal (HLM) stability; type: in vitro ADME; conditions: pooled human liver microsomes
Procedure: Briefly, compounds were dissolved in DMSO to produce stock sample solutions. […] Subsequently, 400 μL of supernatant was transferred to the vial and analyzed by LC-MS. Three types of blank samples were prepared in the same way, with a one-step exception. In the biological blank sample, 5 μL of DMSO was added instead of 5 μL stock solution, in the chemical blanks, 50 μL of water was added instead of HLM, and in the case of the control blank sample, 25 μL of water was added instead of 25 μL of RapidStart System.
A Reverse-phase C18 column Kinetex EVO (Phenomenex, Torrance, CA, USA) was used as a stationary phase, and purified water with 0.1% formic acid (mobile phase A) and LC-MS grade acetonitrile with 0.1% formic acid (mobile phase B) were used as the mobile phases. […] The column temperature was kept constant at 27 °C, the flow of the mobile phase was 0.5 mL min^−1, and the injection volume was 1 μL. […]
The peak areas of the compounds (Acmp) and internal standards (AIS) were detected in positive mode in extracted ion chromatograms from the mass spectrometer data. For the determination of microsomal stability, the Acmp/AIS was calculated as logarithmized. […]

Human plasma stability = type: in vitro ADME; conditions: percentage of the remaining compound after 120 min incubation, 1 μM
Procedure: Compound 33 was incubated with human pooled plasma (Batch S00G71, Biowest, France). Briefly, compounds were dissolved in DMSO to produce stock sample solutions. 10 μL of stock solution was added to 990 μL of human plasma to initiate the reaction. […] The reactions were stopped by transferring 200 μL of incubate to 200 μL of acetonitrile containing the internal standard (IS; 67) at appropriate time points (0, 15, 30, 60 and 120 min) and centrifuged at 12 000 rpm for 5 min at 4 °C to precipitate the protein. After that, […] of supernatant was transferred to the vial and analyzed by LC-MS.
The HPLC system used in this study was Dionex Ultimate 3000 UHPLC RS consisting of an RS pump, RS column compartment, RS autosampler and diode array detector controlled by Chromeleon (version 7.2.9. build 11323) software (Thermo Fisher Scientific, Germering, Germany) connected to a Q Exactive Plus Orbitrap mass spectrometer with Thermo Xcalibur (version 3.1.66.10.) software (Thermo Fisher Scientific, Bremen, Germany). […]
For the determination of plasma stability, the percentage of the remaining compound was calculated from the ratio between peak area ratios (compound peak area/internal standard peak area) obtained at incubation times 0 and 120 min.

HepG2 cells = conditions: human, 24 h
Procedure: (§1) For passaging, the cells were treated with trypsin/EDTA (Sigma-Aldrich, St. Louis, USA) at 37 °C and then harvested. For cytotoxicity evaluation, the cells treated with the studied substances were used, while untreated HepG2 cells served as the control group. The cells were seeded in a 96-well plate at a density of 5 × 10^4 cells per well and incubated for 24 hours. All tested compounds were dissolved in DMSO to prepare 10 mM stock solutions and subsequently diluted to the desired concentration just before the cell treatment (the highest DMSO concentration used was 0.5% v/v). Positive and negative controls were included, as well, and the activity of all the samples was determined in triplicate. Plates were incubated for 24 h in a humidified atmosphere containing 5% CO2 at 37 °C. […] Afterwards, the formazan crystals were dissolved in DMSO, and the absorbance of samples was recorded at 570 nm (BioTek, Synergy Neo2 Multi-Mode Reader NEO2SMALPHAB; BioTek, Winooski, VT, USA). IC50 values were calculated by nonlinear regression from a semi-logarithmic plot of incubation concentration versus percentage of absorbance relative to untreated controls using GraphPad Prism software (version 9; GraphPad Software, Inc., La Jolla, CA, USA).

in vitro = conditions: human, HepG2 hepatocellular carcinoma cells
Procedure: as §1

[4] = PAMPA assay (BBB penetration)
Text: Furthermore, we experimentally determined the ability of 12 highlighted hBChE inhibitors to pass through the BBB using a parallel artificial membrane permeation assay (PAMPA) as described by Di et al.[65] […] The methodology was validated on a set of compounds (positive and negative controls) recognized for their activity in the CNS (Table 3).
In this study, it has been used as a non-cell-based in vitro assay carried out in a coated 96-well membrane filter. The filter membrane of the donor plate was coated with PBL (polar brain lipid, Avanti, USA) in dodecane (4 μl of 20 mg ml^−1 PBL in dodecane) and the acceptor well was filled with 300 μl of PBS (pH 7.4; VA). The tested compounds were dissolved first in DMSO and subsequently diluted with PBS (pH 7.4) to final concentrations of 50–100 μM in the donor wells. […] About 300 μL of the donor solution was added to the donor wells (VD) and the donor filter plate was carefully put on the acceptor plate so that the coated membrane was “in touch” with both the donor solution and acceptor buffer. In principle, the test compound diffused from the donor well through the lipid membrane (area = 0.28 cm^2) to the acceptor well. The concentration of the drug in both the donor and acceptor wells was assessed after 3, 4, 5, and 6 h of incubation in quadruplicate using the UV plate reader Spark (Tecan Group Ltd, Switzerland) at the maximum absorption wavelength of each compound. Besides that, a solution of theoretical compound concentration, simulating the equilibrium state established if the membrane were ideally permeable, was prepared and assessed as well. The concentration of the compounds in the donor and acceptor wells and equilibrium concentration were calculated from the standard curve and expressed as the permeability (Pe) according the equation: [drawing 10] where [drawing 11]

[5] = Cytotoxicity MTT assay, human neuroblastoma cell line; conditions: SH-SY5Y neuroblastoma cells

T1 sequence (P06276 29-602): as above

Work on CCCN(CCc1ccc(O)cc1)Cc1ccc(OCc2ccccc2)cc1 [Compound 33, 4-[2-({[4-(Benzyloxy)phenyl]methyl}(propyl)amino)ethyl]phenol] yielded an IC50 ([1]; mean ± SEM of three independent measurements, each in triplicate) of 167 ± 18 nM, an inhibition at 10 µM ([1]; tested at 10 μM compound concentration, read-out: % inhibition of hBChE ± SEM) of 95 ± 1.1% and a Ki (hBChE; enzyme–inhibitor dissociation constant, nonlinear regression) of 182 ± 28 nM. For the same compound, the “Ki′” value (hBChE; enzyme–substrate–inhibitor dissociation constant, nonlinear regression) was 1619 ± 315 nM, the “type of enzyme inhibition” value (hBChE; sum-of-squares F-test, p < 0.0002, Lineweaver–Burk plot) was “mixed inhibition pattern” and the solubility at 10 min [2] was 267 µM (≈ 100 µg/mL). The microsomal CLint at 0.75 h, 3 µM ([3]; pH 7.4) was 161 µL/min/mg, the half-life at 0.75 h, 3 µM ([3]; pH 7.4, up to 45 min incubation, read-out: HLM T½) was 8.62 min and the Plasma stability (Human plasma stability) was 94.5%. The Safety index (HepG2 cells) was 560, the IC50 at 24 h (in vitro) was 93000 ± 11000 nM and the “Pe ± SEM” value ([4]; PAMPA, PBS pH 7.4, n = 3) was 11.0 ± 2.2 ×10^−6 cm s^−1. For the same compound, the “BBB penetration estimation CNS (+/−)” value ([4]; class from PAMPA Pe) was “CNS + (CNS (+) (high BBB permeation predicted): Pe (×10^−6 cm s^−1) > 4.0)” and the IC50 at 24 h [5] was 38000 ± 3500 nM.
